These results are taken from patent publication US7955596B2 (priority 2003, dated 2011).

Experiment [1] concerns AI-1 and AI-2-mediated quorum-sensing pathways. The settings on record: cited from earlier work.
In experiment [2] the test system is pag-lacZ (pagA protective antigen gene transcription). In kind it is cell-based, B. anthracis.
Experiment [3] relates to B. anthracis protective antigen (PA). In kind it is cell-based.
The test system of experiment [4] is AI-2-mediated quorum-sensing. Conditions: cited from earlier work.
Experiment [5] concerns AI-2-mediated quorum-sensing. Conditions: cited from earlier work. This is another data set of the same source.
The test system of experiment [6] is B. anthracis strain 34F2. In kind it is cell-based.
Experiment [7] deals with B. subtilis. Conditions: cited from earlier work.
In experiment [8] the test system is B. anthracis strain RBAF140. In kind it is cell-based.
Experiment [9] has as its system B. anthracis strain 34F2. In kind it is cell-based. This is another data set of the same source.

SMILES strings stand for the structures. Where two headings read alike, the source gives them in different places.

On to `CCCCC1=C(Br)/C(=C/Br)OC1=O` [furanone 1, (5Z)-4-bromo-5-(bromomethylene)-3-butyl-2(5H)-furanone], for which, in [1], the “AI-1 and AI-2-mediated quorum-sensing pathways” value is given as “directly inhibit”. For the same compound, the “Expression of pag-lacZ (β-gal activity)” value in experiment [2] was “significantly reduced”. The “PA expression (Western blot)” value in [3] was “significant reduction”. Moreover, in experiment [4], the AI-2-mediated quorum-sensing entry is “inhibit”. In addition, in experiment [5], the AI-2-mediated quorum-sensing entry is listed as “inhibit”. Also, in experiment [6], the “B. anthracis growth (OD600)” value is “dramatically inhibited”, the “Bacterial growth (OD600)” value was “completely inhibited” and the “Bacterial growth (OD600) with increasing concentration” value is listed as “increasingly retarded”. Also, in experiment [7], the Biofilm formation entry is recorded as “inhibit” and the Swarming result is recorded as “inhibit”. Also, the “Growth of RBAF140 (OD600)” value in experiment [8] is on record as “significant inhibition of growth”. Besides, in [9], the “Bacterial growth (OD600) with increasing concentration, log phase cells” value was “increasingly retarded”.
For the compound `CCCCC1=CC(=C(Br)Br)OC1=O` [furanone 2, 3-butyl-5-(dibromomethylene)-2-(5H)-furanone], in experiment [6], the “Inhibitory effect compared among furanones 1, 2 and 4” value is recorded as “least”.
On to `O=C1C=C(Br)/C(=C/Br)O1` [furanone 4, 4-bromo-5-(bromomethylene)-2(5H)-furanone], for which, in experiment [6], the “Inhibitory effect compared among furanones 1, 2 and 4” value is given as “most potent inhibitory effect”.
